From PMC4392921 (Diabetes, 2014)

Test system: CD4+ T-cell clones specific for modified GAD65 epitopes
Experiment: T-cell clone proliferation assay, [3H]-thymidine incorporation
Type: cell-based, human
Conditions: GAD154E,164E-specific T cells (data not shown)

## TTG-treated GAD: GAD65 protein unfolded by heating and treated with transglutaminase
  proliferation in response to treated GAD protein: not able to proliferate
